Assay results from ChEMBL document CHEMBL1132134, “The LMC delta opioid recognition pharmacophore: comparison of SNC80 and oxymorphindole” (Bioorg Med Chem Lett, 1999).

Key:
[1] = biological target: Opioid receptors; mu & delta (Rattus norvegicus) (UniProt P33533+P33535); test: Selectivity ratio against mu opioid receptor to that of delta opioid receptor; assay type: protein assay
[2] = biological target: Delta-type opioid receptor (Rattus norvegicus, UniProt P33533); test: Binding affinity evaluated by inhibition of binding of [3H]DADLE to delta opioid receptor of rat brain
Delta-type opioid receptor, sequence (P33533 whole entry): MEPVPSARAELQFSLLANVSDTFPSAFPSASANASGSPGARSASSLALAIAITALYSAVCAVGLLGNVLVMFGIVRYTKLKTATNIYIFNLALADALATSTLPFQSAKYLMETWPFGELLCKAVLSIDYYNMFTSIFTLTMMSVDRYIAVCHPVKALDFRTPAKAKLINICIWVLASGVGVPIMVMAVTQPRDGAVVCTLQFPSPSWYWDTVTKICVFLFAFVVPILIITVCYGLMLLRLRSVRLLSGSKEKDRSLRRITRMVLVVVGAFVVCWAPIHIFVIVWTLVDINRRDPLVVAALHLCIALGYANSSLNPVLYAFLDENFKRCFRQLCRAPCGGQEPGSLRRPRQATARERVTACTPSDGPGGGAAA

Opioid receptors; mu & delta (Rattus norvegicus), sequence (P33533 whole entry, looked up): as the sequence (P33533 whole entry) above
Opioid receptors; mu & delta (Rattus norvegicus), sequence (P33535 whole entry, looked up): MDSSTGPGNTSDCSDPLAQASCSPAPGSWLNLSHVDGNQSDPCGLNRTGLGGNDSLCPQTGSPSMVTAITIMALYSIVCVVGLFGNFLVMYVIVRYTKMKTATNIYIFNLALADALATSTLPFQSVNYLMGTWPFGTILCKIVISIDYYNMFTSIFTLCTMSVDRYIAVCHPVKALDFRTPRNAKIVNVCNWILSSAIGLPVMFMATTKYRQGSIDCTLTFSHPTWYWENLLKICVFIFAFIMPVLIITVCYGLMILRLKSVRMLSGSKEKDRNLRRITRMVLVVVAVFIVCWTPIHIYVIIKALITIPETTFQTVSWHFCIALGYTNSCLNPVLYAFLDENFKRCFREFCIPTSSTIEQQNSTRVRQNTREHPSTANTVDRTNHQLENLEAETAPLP

Row | SMILES | Selectivity [1] | Ki [2] [nM]
1 | O=C1/C(=C/c2c3ccccc3cc3ccccc23)C[C@@]2(O)C3Cc4ccc(O)c5c4C2(CCN3CC2CC2)C1O5 (stereo not given in full) | 6.4 | 17
2 | O=C1/C(=C\c2ccccc2)C[C@@]2(O)[C@H]3Cc4ccc(O)c5c4[C@@]2(CCN3CC2CC2)[C@H]1O5 | 8.6 | 3.7
3 | O=C1/C(=C/c2ccccc2)C[C@@]2(O)[C@H]3Cc4ccc(O)c5c4[C@@]2(CCN3CC2CC2)[C@H]1O5 [BNTX] | 4 | 6.2
4 | O=C1/C(=C/c2cccc3ccccc23)C[C@@]2(O)C3Cc4ccc(O)c5c4C2(CCN3CC2CC2)C1O5 (stereo not given in full) | 7.5 | 4.6
5 | O=C1/C(=C\c2ccc(-c3ccccc3)cc2)C[C@@]2(O)C3Cc4ccc(O)c5c4C2(CCN3CC2CC2)C1O5 (stereo not given in full) | 4.2 | 47
6 | O=C1/C(=C\c2ccc3ccccc3c2)C[C@@]2(O)C3Cc4ccc(O)c5c4C2(CCN3CC2CC2)C1O5 (stereo not given in full) | 3 | 16
7 | O=C1/C(=C/c2ccc(-c3ccccc3)cc2)C[C@@]2(O)C3Cc4ccc(O)c5c4C2(CCN3CC2CC2)C1O5 (stereo not given in full) | 0.6 | 75
8 | O=C1/C(=C\c2c3ccccc3cc3ccccc23)C[C@@]2(O)C3Cc4ccc(O)c5c4C2(CCN3CC2CC2)C1O5 (stereo not given in full) | 14 | 2.4
9 | O=C1/C(=C/c2ccc3ccccc3c2)C[C@@]2(O)C3Cc4ccc(O)c5c4C2(CCN3CC2CC2)C1O5 (stereo not given in full) | 0.6 | 39
10 | O=C1/C(=C\c2cccc3ccccc23)C[C@@]2(O)C3Cc4ccc(O)c5c4C2(CCN3CC2CC2)C1O5 (stereo not given in full) | 15 | 0.7
